Consider two molecules from patent publication US8703965B2, “Preparation of saturated imidazolinium salts and related compounds” (Materia, Inc., priority 2007, dated 2014).

The nature of the data set: Solubility of the salts in different solvents at different temperature (basis for the separation).

Text: The principle to separate the two salts is the solubility in different solvents at different temperature.

Turning to `Cc1cc(C)c(N2C=[N+](c3c(C)cc(C)cc3C)CC2)c(C)c1.[Br-]` [sIMes-HBr, 1,3-Dimesitylimidazolinium Bromide], where the note is “Room Temperature”, the Solubility in acetone result was “slightly soluble”, the Solubility in hexane result is “not soluble”, the Solubility in toluene result is reported as “not soluble” and the Solubility in water entry is given as “slightly soluble”.
For `Br.CCN(C(C)C)C(C)C` [i-Pr2NEt—HBr], for the setting “Room Temperature”, the Solubility in acetone entry is reported as “soluble”, the Solubility in hexane entry is given as “not soluble”, the Solubility in toluene entry was “not soluble” and the Solubility in water result is reported as “very soluble”. The Solubility in toluene result (100 C.) was “soluble”.
